# Data as given in PubChem BioAssay AID1259408 (Genetic Toxicology Data Bank (GENE-TOX), 2018).
# Activity calls are given as the source filed them. How the calls were made is not given here.
# Test system: GENE-TOX genotoxicity assays, various organisms and cells
# Assay: GENE-TOX mutagenicity studies
# Conditions: for call: Assay Type: In vivo carcinogenicity studies
# From the text: GENE-TOX provides genetic toxicology (mutagenicity) test data from expert peer review of open scientific literature for more than 3,000 chemicals from the United States Environmental Protection Agency (EPA). GENE-TOX was established to select assay systems for evaluation, review data in the scientific literature, and recommend proper testing protocols and evaluation procedures for these systems.
# GENE-TOX covers the years 1991 - 1998. It is no longer updated.
# This is an archive assay for GENE-TOX mutagenicity studies.
# [1] = Species/Cell Type: Human, Sex: Male, Assay Type: Sperm morphology, Assay Code: SPH+, Evaluation Type: Evaluation A (Pre-1980)
# [2] = Species/Cell Type: Salmonella typhimurium (one or more of the five standard strains: TA98, TA100, TA1535, TA1537, and TA1538), Assay Type: Histidine reverse gene mutation, Ames assay, Assay Code: SALT, Evaluation Type: Evaluation A (Pre-1980)
# [3] = Species/Cell Type: Nonhuman, Assay Code: CCG+L, Evaluation Type: Evaluation A (Pre-1980)
# [4] = Species/Cell Type: Salmonella typhimurium (one or more of the five standard strains: TA98, TA100, TA1535, TA1537, and TA1538), Assay Type: Histidine reverse gene mutation, Ames assay, Assay Code: SAL+*, Activation: With metabolic activation, Evaluation Type: Evaluation A (Pre-1980)
# [5] = Species/Cell Type: Salmonella typhimurium (one or more of the five standard strains: TA98, TA100, TA1535, TA1537, and TA1538), Assay Type: Histidine reverse gene mutation, Ames assay, Assay Code: SAL-, Evaluation Type: Evaluation A (Pre-1980)
# [6] = Species/Cell Type: Hordeum vulgare (barley), Assay Type: Chromosome aberrations, Assay Code: HOC+D, Dose Response: With dose response, Evaluation Type: Evaluation A (Pre-1980)
# [7] = Species/Cell Type: Escherichia coli polA (W3119 vs P3478), Assay Type: Rec-assay, DNA effects (bacterial DNA repair), Assay Code: RE1T, Evaluation Type: Evaluation A (Pre-1980)
structure (smiles),measurement,setting,value
[Pb],mutagenic call,"Species/Cell Type: Human lymphocytes or leukocytes, Assay Type: Chromosome aberrations in vitro, Assay Code: CY7-, Evaluation Type: Evaluation A (Pre-1980)",inactive; negative
same,mutagenic call,"Species/Cell Type: Human lymphocytes or leukocytes, Assay Type: Chromosome aberrations in vivo, Assay Code: CY8T, Evaluation Type: Evaluation A (Pre-1980)",no conclusion
same,mutagenic call,[1],active; positive
same,mutagenic call,"Species/Cell Type: Nonhuman bone marrow, Assay Type: Chromosome aberrations, in vivo, Assay Code: CY#-, Evaluation Type: Evaluation A (Pre-1980)",inactive; negative
same,call,"Species/Cell Type: Nonhuman, Assay Code: CCGT, Evaluation Type: Evaluation A (Pre-1980)",no conclusion
C#CC(O)(c1ccccc1)c1ccccc1,mutagenic call,[2],no conclusion
C1=Cc2cc3cccc4ccc5ccc1c2c5c43,call,[3],active; positive
same,mutagenic call,[4],active; positive
Oc1ccc2ccccc2c1N=Nc1ccc(N=Nc2ccccc2)cc1,mutagenic call,"Species/Cell Type: Bacillus subtilis (H17 vs M45T), Assay Type: Rec-assay, spot test, DNA effects (bacterial DNA repair), Assay Code: REXT, Evaluation Type: Evaluation A (Pre-1980)",no conclusion
[Cl][Cu][Cl],mutagenic call,"Species/Cell Type: Bacillus subtilis (H17 vs M45), Assay Type: Rec-assay, spot test, DNA effects (bacterial DNA repair), Assay Code: REW-, Evaluation Type: Evaluation A (Pre-1980)",inactive; negative
NCCNc1cccc2ccccc12,call,"Species/Cell Type: Nonhuman, Assay Code: CCG-, Evaluation Type: Evaluation A (Pre-1980)",inactive; negative
Cc1cc(-c2ccc(N/N=C3/C(=O)c4c(N)cc(S(=O)(=O)O)cc4C=C3S(=O)(=O)O)c(C)c2)ccc1N/N=C1/C(=O)c2c(N)cc(S(=O)(=O)O)cc2C=C1S(=O)(=O)O,mutagenic call,"Species/Cell Type: Bacillus subtilis (H17 vs M45), Assay Type: Rec-assay, spot test, DNA effects (bacterial DNA repair), Assay Code: REW+, Evaluation Type: Evaluation A (Pre-1980)",active; positive
same,call,"Species/Cell Type: Nonhuman, Assay Code: CCG+, Evaluation Type: Evaluation A (Pre-1980)",active; positive
same,mutagenic call,[5],inactive; negative
C#C[C@]1(O)CC[C@H]2[C@@H]3CCc4cc(OC)ccc4[C@H]3CC[C@@]21C (tested in a mixture with another compound),mutagenic call,[1],active; positive
O=[N+]([O-])C1c2ccccc2-c2ccccc21,mutagenic call,"Species/Cell Type: Escherichia coli WP2 UVRA, Assay Type: Tryptophan reverse gene mutation, Assay Code: WPU+, Evaluation Type: Evaluation A (Pre-1980)",active; positive
CS(=O)(=O)OCCO,mutagenic call,"Species/Cell Type: Arabidopsis species, Assay Type: Gene mutation, Assay Code: ARM+D, Dose Response: With dose response, Evaluation Type: Evaluation A (Pre-1980)",active; positive
same,mutagenic call,[6],active; positive
O=c1c(O)c(-c2ccc(O)cc2)oc2cc(O)cc(O)c12,mutagenic call,"Species/Cell Type: Mammalian polychromatic erythrocytes, Assay Type: Micronucleus test, chromosome aberrations, Assay Code: MNT+, Evaluation Type: Evaluation B (Post-1980)",active; positive
same,mutagenic call,"Species/Cell Type: Nonhuman, Assay Type: Sister-chromatid exchange (SCE) in vitro, Assay Code: SC2+D*, Activation: With metabolic activation, Dose Response: With dose response, Evaluation Type: Evaluation B (Post-1980)",active; positive
Cc1cc(N(C)C)ccc1N=Nc1ccccc1,mutagenic call,"Species/Cell Type: Escherichia coli polA (W3110 vs P3478), Assay Type: Rec-assay, DNA effects (bacterial DNA repair), Assay Code: RE2-, Evaluation Type: Evaluation A (Pre-1980)",inactive; negative
same,mutagenic call,[7],no conclusion
same,mutagenic call,"Species/Cell Type: Fischer rat embryo (RLV/1706) cells, Assay Type: Cell transformation, viral enhanced, Assay Code: CTR+, Evaluation Type: Evaluation A (Pre-1980)",active; positive
same,mutagenic call,"Species/Cell Type: Human diploid fibroblasts, Assay Type: Unscheduled DNA synthesis (UDS) in vitro, DNA effects, Assay Code: UDH-, Evaluation Type: Evaluation A (Pre-1980)",inactive; negative
same,mutagenic call,"Species/Cell Type: Mouse (BALB/c-3T3) cells, Assay Type: Cell transformation, Assay Code: CTB-, Evaluation Type: Evaluation A (Pre-1980)",inactive; negative
same,call,[3],active; positive
same,mutagenic call,"Species/Cell Type: Nonhuman, Assay Type: Sister-chromatid exchange (SCE) in vitro, Assay Code: SC2+D, Dose Response: With dose response, Evaluation Type: Evaluation A (Pre-1980)",active; positive
same,mutagenic call,"Species/Cell Type: Rat primary hepatocytes, Assay Type: Unscheduled DNA synthesis (UDS) in vitro, DNA effects, Assay Code: UDPT, Evaluation Type: Evaluation A (Pre-1980)",no conclusion
same,mutagenic call,"Species/Cell Type: Saccharomyces cerevisiae, Assay Type: Mitotic recombination or gene conversion, Assay Code: YEH+/-*, Activation: With metabolic activation, Evaluation Type: Evaluation A (Pre-1980)","inactive; positive without activation, negative with activation"
same,mutagenic call,[4],active; positive
same,mutagenic call,"Species/Cell Type: Salmonella typhimurium, Assay Type: Forward and reverse gene mutation, host-mediated assay, Assay Code: HMA+, Evaluation Type: Evaluation A (Pre-1980)",active; positive
same,mutagenic call,"Species/Cell Type: Syrian hamster embryo (SHE) cells, Assay Type: Cell transformation, clonal assay, Assay Code: CTC-, Evaluation Type: Evaluation A (Pre-1980)",inactive; negative
CCCCN(CCCC(=O)O)N=O,mutagenic call,"Species/Cell Type: Salmonella typhimurium (one or more of the five standard strains: TA98, TA100, TA1535, TA1537, and TA1538), Assay Type: Histidine reverse gene mutation, Ames assay, Assay Code: SAL+/-*, Activation: With metabolic activation, Evaluation Type: Evaluation A (Pre-1980)","inactive; positive without activation, negative with activation"
O=[N+]([O-])c1ccc(-c2nc(NCC(O)CO)c3ccccc3n2)s1 (stereo unspecified),mutagenic call,[2],no conclusion
C=CCNC(=O)OC1(SC)C(=O)c2ccccc2C1=O,mutagenic call,"Species/Cell Type: Salmonella typhimurium, Assay Type: Forward and reverse gene mutation, host-mediated assay, Assay Code: HMAT, Evaluation Type: Evaluation A (Pre-1980)",no conclusion
O=C1CN(/N=C/C=C/c2ccc([N+](=O)[O-])o2)C(=O)N1,mutagenic call,"Species/Cell Type: Escherichia coli WP2, Assay Type: Tryptophan reverse gene mutation, Assay Code: WP2+, Evaluation Type: Evaluation A (Pre-1980)",active; positive
same,mutagenic call,"Species/Cell Type: Escherichia coli WP2 UVRA, Assay Type: Tryptophan reverse gene mutation, Assay Code: WPU-, Evaluation Type: Evaluation A (Pre-1980)",inactive; negative
CCOP(=S)(OCC)SCCSCC,mutagenic call,"Species/Cell Type: Bacillus subtilis (H17 vs M45), Assay Type: Rec-assay, spot test, DNA effects (bacterial DNA repair), Assay Code: REWT, Evaluation Type: Evaluation A (Pre-1980)",no conclusion
same,mutagenic call,"Species/Cell Type: Drosophila melanogaster, Assay Type: Sex-linked recessive lethal gene mutation, Assay Code: SRL-, Evaluation Type: Evaluation A (Pre-1980)",inactive; negative
same,mutagenic call,[7],no conclusion
same,mutagenic call,[6],active; positive
same,mutagenic call,"Species/Cell Type: Human diploid fibroblasts, Assay Type: Unscheduled DNA synthesis (UDS) in vitro, DNA effects, Assay Code: UDH+/-*, Activation: With metabolic activation, Evaluation Type: Evaluation A (Pre-1980)","inactive; positive without activation, negative with activation"
same,mutagenic call,"Species/Cell Type: Nonhuman, Assay Type: Sister-chromatid exchange (SCE) in vitro, Assay Code: SC2T, Evaluation Type: Evaluation B (Post-1980)",no conclusion
same,mutagenic call,"Species/Cell Type: Saccharomyces cerevisiae, Assay Type: Mitotic recombination or gene conversion, Assay Code: YEH-, Evaluation Type: Evaluation A (Pre-1980)",inactive; negative
same,mutagenic call,[5],inactive; negative
N#CN(CCCC(NC(=O)c1ccccc1)C(N)=O)N=O (stereo unspecified),mutagenic call,"Species/Cell Type: Escherichia coli polA (W3119 vs P3478), Assay Type: Rec-assay, DNA effects (bacterial DNA repair), Assay Code: RE1+, Evaluation Type: Evaluation A (Pre-1980)",active; positive
